Measured values: patent publication US20250236639A1, “NEUROACTIVE STEROIDS AND COMPOSITIONS THEREOF” (Sage Therapeutics, Inc., priority 2019, published 2025)

Biological target: GABAA receptor
Assay: Steroid inhibition of [35S]-TBPS binding, rat brain cortical membranes
Settings: 3 nM [35S]-TBPS, in the presence of 5 mM GABA
Outline: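 Rat cortical P2 membranes incubated 90 min at room temperature with 3 nM [35S]-TBPS, […] and test compound (0.5% DMSO final) in NaCl/Na–K phosphate pH 7.4; nonspecific binding with […]. Filter-bound radioactivity counted; IC50 and Imax from nonlinear fits, mean ± SEM.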

**Q.** For `C[C@@H]1C[C@H]2[C@H](CC[C@@H]3[C@@H]2CC[C@@]2(C)[C@H]3CC[C@@H]2[C@@](C)(O)Cn2cc(C#N)cn2)C[C@]1(C)O` [Compound 53, 1-((R)-2-hydroxy-2-((2R,3S,5R,8R,9R,10S,13S,14S,17S)-3-hydroxy-2,3,13-trimethylhexadecahydro-1H-cyclopenta[a]phenanthren-17-yl)propyl)-1H-pyrazole-4-carbonitrile], which IC50 is on record?
**A.** 100 to 1000 nM

**Q.** With `CCC[C@@]1(O)CC[C@@]2(C)[C@@H](CC[C@@H]3[C@@H]2CC[C@@]2(C)[C@H]3CC[C@@H]2[C@](C)(O)Cn2cc(C#N)cn2)C1` [Compound 17, 1-((S)-2-hydroxy-2-((3R,5S,8R,9S,10S,13S,14S,17S)-3-hydroxy-10,13-dimethyl-3-propylhexadecahydro-1H-cyclopenta[a]phenanthren-17-yl)propyl)-1H-pyrazole-4-carbonitrile] as the compound, how does the IC50 read?
**A.** 100 to 1000 nM

**Q.** How did the IC50 turn out when `COC[C@@]1(O)CC[C@@]2(C)[C@H](CC[C@@H]3[C@@H]2CC[C@@]2(C)[C@H]3CC[C@@H]2[C@@](C)(Cn2cc(C#N)cn2)OC)C1` [Compound 54, 1-((S)-2-((3R,5R,8R,9S,10S,13S,14S,17S)-3-hydroxy-3-(methoxymethyl)-10,13-dimethylhexadecahydro-1H-cyclopenta[a]phenanthren-17-yl)-2-methoxypropyl)-1H-pyrazole-4-carbonitrile] was run?
**A.** 100 to 1000 nM

**Q.** How did the IC50 turn out when `COC[C@@]1(O)CC[C@H]2[C@@H](CC[C@@H]3[C@@H]2CC[C@@]2(C)[C@H]3CC[C@@H]2[C@](C)(O)Cn2cc(C#N)cn2)C1` [Compound 19, 1-((S)-2-hydroxy-2-((3R,5S,8R,9R,10S,13S,14S,17S)-3-hydroxy-3-(methoxymethyl)-13-methylhexadecahydro-1H-cyclopenta[a]phenanthren-17-yl)propyl)-1H-pyrazole-4-carbonitrile] was run?
**A.** < 100 nM

**Q.** `CCC[C@@]1(O)CC[C@H]2[C@H](CC[C@@H]3[C@@H]2CC[C@@]2(C)[C@H]3CC[C@@H]2[C@](C)(O)Cn2ccc(C#N)n2)C1` [Compound 22, 1-((S)-2-hydroxy-2-((3R,5R,8R,9R,10S,13S,14S,17S)-3-hydroxy-13-methyl-3-propylhexadecahydro-1H-cyclopenta[a]phenanthren-17-yl)propyl)-1H-pyrazole-3-carbonitrile] was tested. Which IC50 did it give?
**A.** < 100 nM

**Q.** For `COC[C@@]1(O)CC[C@H]2[C@H](CC[C@@H]3[C@@H]2CC[C@]2(C)[C@@H](C(C)(C)Cn4cc(C#N)cn4)CC[C@@H]32)C1` [Compound 56, 1-(2-((3R,5R,8R,9R,10S,13S,14S,17S)-3-hydroxy-3-(methoxymethyl)-13-methylhexadecahydro-1H-cyclopenta[a]phenanthren-17-yl)-2-methylpropyl)-1H-pyrazole-4-carbonitrile], which IC50 is on record?
**A.** < 100 nM

**Q.** How did the IC50 turn out when `COC[C@@]1(O)CC[C@H]2[C@H](CC[C@@H]3[C@@H]2CC[C@]2(C)[C@@H](C(F)(F)Cn4cc(C#N)cn4)CC[C@@H]32)C1` [Compound 38, 1-(2,2-difluoro-2-((3R,5R,8R,9R,10S,13S,14S,17S)-3-hydroxy-3-(methoxymethyl)-13-methylhexadecahydro-1H-cyclopenta[a]phenanthren-17-yl)ethyl)-1H-pyrazole-4-carbonitrile] was run?
**A.** < 100 nM
